The text below walks through data of patent publication US5594009A, “Fused pyrrolocarbazoles” (priority 1995, dated 1997).

Assay [1] concerns chick dorsal root ganglion neurons. The experiment in a line: DRG Neurite Outgrowth Assay. To be noted: compound concentration 200 nM; 48 hours. In kind it is cell-based. The procedure:
Fused pyrrolocarbazoles promoted nerve fiber (i.e., neurite) outgrowth in explant (i.e., primary) cultures of chick dorsal root ganglion neurons. Dorsal root ganglion (i.e., DRG) nerve fiber outgrowth was increased when a fused pyrrolocarbazole was added to cultures at a concentration of 200 nM (Table IV). Control cultures consisted of: 1) no added NGF or fused pyrrolocarbazole ("Control"), or 2) 50 ng/ml NGF, a neurotrophin known to promote neurite extension in DRG cultures ("NGF").
Methods: Dorsal root ganglia were dissected from chick embryos (embryonic day 9) and individual ganglia were plated on poly-1-ornithine and laminin coated plates. A fused pyrrolocarbazole or 50ng/ml NGF was each added to independent cultures after allowing a 1-2 hour cell attachment period. Explants were cultured for 48 hours in serum-free N2 medium supplemented with 0.05% BSA (Bottenstein et al., PNAS USA 76:514-517 (1979)). Cultures were maintained at 37° C. in a humidified atmosphere, 5% CO2 /95% air. Nerve fiber outgrowth was assessed by the density and length of neurites. It should be apparent to those skilled in the art that neurite extension assays are semi-quantitative and involve a visual comparison between control and experimental neuronal cell cultures (Alberts et al., Molecular Biology of the Cell, 2ed. Garland Publishing, Inc., New York (1989).

Assay [2] has as its target protein kinase C. The assay is described as follows: PKC Activity Inhibition Assay. Type of assay: biochemical. On the procedure: Fused pyrrolocarbazoles inhibited the activity of protein kinase C (Table VI). The protein kinase C assay has been disclosed (Murakata et al., U.S. Pat. No. 4,923,986; Kikkawa et al., J. Biol. Chem. 257:13341-13348 (1982)). The assay was performed with several concentrations of fused pyrrolocarbazoles. The concentration at which protein kinase C was 50% inhibited (IC50) was determined.

Assay [3] has as its system choline acetyltransferase (ChAT) activity in dissociated rat embryonic spinal cord culture. The experiment in a line: Spinal Cord ChAT Activity Assay. To be noted: ChAT measured after 48 hours. In kind it is cell-based.
Method: In these assays, a fused pyrrolocarbazole was directly added to a dissociated spinal cord culture. […] The fused pyrrolocarbazole was added on the same day the dissociated spinal cord cell culture was initiated.
Methods: Fetal rat spinal cord cells were dissociated, and experiments were performed as described (Smith et al., J. Cell Biology., 101:1608-1621 (1985); Glicksman et al., J. Neurochem. 61:210-221 (1993)). Dissociated cells were prepared from spinal cords dissected from rats (embryonic day 14-15) by standard trypsin dissociation techniques (Smith et al., J. Cell Biology 10:1608-1621 (1985)). Cells were plated at 6×10^5 cells/cm^2 on poly-1-ornithine coated plastic tissue culture wells in serum-free N2 medium supplemented with 0.05% bovine serum albumin (BSA) (Bottenstein et al., PNAS USA 514-517 (1979)). Cultures were incubated at 37° C. in a humidified atmosphere of 5% CO2 /95% air for 48 hours. ChAT activity was measured after 2 days it vitro using a modification of the Fonnum procedure (Fonnum, J. Neurochem. 24:407-409 (1975)) according to McManaman et al. and Glicksman et al. (McManaman et al., Developmental Biology 125:311-320 (1988); Glicksman et al., J. Neurochem. 61:210-221 (1993)).
Assay [4] relates to AT-2 cells. The experiment in a line: Inhibition of Growth of Prostate Cancer Cell Line (MTS assay). In kind it is cell-based. To be noted: 72 h; 3 days, MTS; read-out: AT-2 cell growth IC50. On the procedure: AT-2 cells are a prostate cancer cell sub-line derived from the Dunning H tumor, graciously provided to us by Dr. John Isaacs (John Hopkins, M. D.). Unlike the Dunning H tumor cells, AT-2 cells can be grown in vitro.
Methods: At-2 cells ([…]) were plated on tissue culture plastic in 96-well plates in the presence of RPMI-1640 medium containing 10% fetal calf serum, 250 nM dexamethasone, 2 mM glutamine, 1 mM sodium pyruvate, and penicillin/streptomycin antibiotics. The next day, compounds were added at 4 concentrations (10, 1, 0.1, 0.01 μM) to determine the approximate IC50 range. Cultures were assayed 3 days later for cell number using the MTS [(3-(4,5-dimethylthiazol-2-yl)-5-(3-carboxymethoxyphenyl)-2-(4-sulfophenyl)-2H-tetrazolium, inner salt)] assay. The MTS assay (purchased as a kit from Promega) measures the formation of an aqueous soluble formazan (detected by a plate reader at 490nm) produced by the bioreduction of a tetrazolium compound (MTS) in metabolically active cells via mitochondrial succinate dehydrogenase. After determining linearity of the substrate incubation time over a range of cell plating densities, the amount of product measured is directly proportional to cell number. MTS (333 ug/ml) and 25 μM phenazine methosulfate are mixed and added directly to the culture medium, and incubated at 37° C. in the 5% CO2 /95% air incubator for 0.5-4 h. Absorbance of the product at 490 nm is read on the BIO-TEK plate reader. Background values were obtained from wells containing culture medium with substrate solution, but no cells. In addition, values were also obtained from wells containing cells plated at day 0 and assayed on the day compound was added (day 1) in order to determine the number of cells at the time compound was added. After the initial dose-finding experiment was completed, subsequent experiments were set up so that there were 3 or more concentrations near the predicted IC50.

Regarding `O=C1NCc2c1c1c(c3[nH]c4ccccc4c23)Cc2ccccc2-1` [Compound I-2], the “DRG Neurite Outgrowth” value in assay [1] is reported as “modest to dense outgrowth of neurites”. For the same compound, the IC50 stood at 0.11 µM in assay [2] and 4.6 µM in assay [4]. Besides, the “Spinal Cord ChAT Activity, % of Control, untreated cultures” value in assay [3] is given as 160 % of Control.
